What was measured:
[1] = tested on: Platelet-rich plasma (PRP); test: Platelet aggregation in man induced by the TXA2 agonist U46619; assay type: cell-based; settings: human PRP, U46619 1 μM
Experimental: (§1) Platelet aggregation in man
(§2) Venous blood is obtained from human volunteers who have not taken aspirin for at least 14 days prior to the experiment. The blood is removed over sodium citrate (0.109 M) (1 vol. of citrate over 9 vol. of blood). Platelet-rich plasma (PRP) is obtained by centrifugation (20° C.) at 200 g for 10 minutes. The number of platelets is on average 250000 PL/mm^3. The PRP is stored at room temperature until the test and is used within 2 hours of having been taken. The TXA2 agonist U46619 is used at a concentration of 1 μM and 5-hydroxytryptamine is used at a concentration of 10 μM, the latter in the presence of 0.3 μM adenosine diphosphate and 1 μM adrenalin.
(§3) The values indicate that the compounds of the invention are powerful platelet anti-aggregants, which act in a balanced manner on the two activation routes, that of TXA2 and that of serotonin.

[2] = tested on: Platelet-rich plasma (PRP); test: Platelet aggregation in man induced by 5-hydroxytryptamine; assay type: cell-based; settings: human PRP, 5-hydroxytryptamine 10 μM in the presence of 0.3 μM adenosine diphosphate and 1 μM adrenalin, read-out: IC50, platelet aggregation produced by 5-hydroxytryptamine
Experimental: as §1, §2, §3

Compound `O=C(O)CCc1cc(CCN2CCC(c3nsc4cc(F)ccc34)CC2)cc2c1CCC(NS(=O)(=O)c1ccc(Cl)cc1)C2` (centres unmarked) [Example 4, 3-(6-{[(4-Chlorophenyl)sulphonyl]amino}-3-{2-[4-(6-fluoro-1,2-benzisothiazol-3-yl)-1-piperidinyl]ethyl}-5,6,7,8-tetrahydro-1-naphthyl)propanoic acid] has an IC50 [1] of 170 nM and an IC50 [2] of 230 nM.

— patent publication US6545037B2, “Benzenesulfonamide compounds” (Les Laboratoires Servier, priority 2000, dated 2003)
